Measurements as given in ChEMBL document CHEMBL1667768, “Compounds containing 2-substituted imidazole ring for treatment against human African trypanosomiasis” (Bioorg Med Chem Lett, 2011).
≈ marks a conversion by molar mass, not a printed value.

Assays:
[1] = Aqueous solubility of the compound at pH 1.5 at 25 degC; format: physicochemical
[2] = tested on: L6; assay: Cytotoxicity against rat L6 cells after 72 hrs by SRB assay; format: cell-based; details: L6, 72 h
[3] = tested on: Trypanosoma brucei rhodesiense; assay: Antimicrobial activity against Trypanosoma brucei rhodesiense after 48 hrs by proliferation assay; format: functional, organism-based
[4] = Aqueous solubility of the compound at pH 7.5 at 25 degC; format: physicochemical

| SMILES | solubility [1] | IC50 [3] | solubility [4] | IC50 [2] |
| --- | --- | --- | --- | --- |
| Cn1c([N+](=O)[O-])cnc1COc1ccccc1 | 5.7 µM (≈ 1.33 µg/mL) | > 30 µM | 2.1 µM (≈ 0.49 µg/mL) | > 400 µM |
| Cn1c([N+](=O)[O-])cnc1COc1ccncc1 | 4.8 µM (≈ 1.12 µg/mL) | > 30 µM | 2.7 µM (≈ 0.632 µg/mL) | > 400 µM |
| CSc1ccc(OCc2ncc(Cl)n2C)cc1 | 21 µM (≈ 5.64 µg/mL) | > 30 µM | 8.7 µM (≈ 2.34 µg/mL) | > 400 µM |
| CSc1ccc(OCc2ncc(Br)n2C)cc1 | 18.5 µM (≈ 5.79 µg/mL) | > 30 µM | 8.5 µM (≈ 2.66 µg/mL) | > 400 µM |
| CSc1ccc(OCc2ncc(S(=O)(=O)O)n2C)cc1 | 25.4 µM (≈ 7.99 µg/mL) | > 30 µM | 8.2 µM (≈ 2.58 µg/mL) | > 400 µM |
| CSc1ccc(OCc2nc(Cl)c(Cl)n2C)cc1 | 45.5 µM (≈ 13.8 µg/mL) | > 30 µM | 25.5 µM (≈ 7.73 µg/mL) | > 400 µM |
| CSc1ccc(OCc2nc(Br)c(Cl)n2C)cc1 | 37.5 µM (≈ 13 µg/mL) | > 30 µM | 21.7 µM (≈ 7.54 µg/mL) | > 400 µM |
| CSc1ccc(OCc2nc(Br)c(Br)n2C)cc1 | 41.2 µM (≈ 16.2 µg/mL) | > 30 µM | 24.5 µM (≈ 9.61 µg/mL) | > 400 µM |
| CSc1ccc(OCc2nc(Cl)c(Br)n2C)cc1 | 35.8 µM (≈ 12.4 µg/mL) | > 30 µM | 24.9 µM (≈ 8.66 µg/mL) | > 400 µM |

Further lines, with some results ahead:

| solubility [1] | IC50 [3] | solubility [4] | SMILES | IC50 [2] |
| --- | --- | --- | --- | --- |
| 4.3 µM (≈ 1.07 µg/mL) | 27 µM | 2.2 µM (≈ 0.546 µg/mL) | Cc1cc(OCc2ncc([N+](=O)[O-])n2C)ccn1 | 286 µM |
| 17.1 µM (≈ 5.37 µg/mL) | 0.25 µM | 5.9 µM (≈ 1.85 µg/mL) | CSc1ccc(OCc2nc(Cl)c([N+](=O)[O-])n2C)cc1 | 0.2 µM |
| 16.7 µM (≈ 5.98 µg/mL) | 0.55 µM | 5.8 µM (≈ 2.08 µg/mL) | CSc1ccc(OCc2nc(Br)c([N+](=O)[O-])n2C)cc1 | 0.8 µM |
| 22.8 µM (≈ 8.19 µg/mL) | 0.37 µM | 7.9 µM (≈ 2.84 µg/mL) | CSc1ccc(OCc2nc(S(=O)(=O)O)c([N+](=O)[O-])n2C)cc1 | 0.2 µM |
| 5.1 µM (≈ 1.42 µg/mL) | > 30 µM | 2.5 µM (≈ 0.698 µg/mL) | CSc1ccc(OCc2nc([N+](=O)[O-])cn2C)cc1 | > 400 µM |
| 5.9 µM (≈ 1.55 µg/mL) | 25 µM | 3.1 µM (≈ 0.813 µg/mL) | CCc1cc(OCc2ncc([N+](=O)[O-])n2C)ccn1 | 243 µM |
| 5.6 µM (≈ 1.78 µg/mL) | 0.67 µM | 3.5 µM (≈ 1.11 µg/mL) | Cn1c([N+](=O)[O-])cnc1COc1ccnc(N2CCNCC2)c1 | 255 µM |
| 5.5 µM (≈ 1.54 µg/mL) | 0.7 µM | 2.5 µM (≈ 0.698 µg/mL) | CSc1ccc(OCc2ncc([N+](=O)[O-])n2C)cc1 [FEXINIDAZOLE] | 377 µM |
